According to US12630498B2 (Genzyme Corporation, priority 2019, dated 2026):

Target: T1, human Cystic Fibrosis Transmembrane Conductance Regulator (CFTR) harboring the ΔF508 mutation (Homo sapiens, UniProt P13569, DEL508-508)
T1 construct: expressed in transfected cells; host or cells: H441 carcinoma line (G418-selected)
Experiment: H441 cell ΔF508-CFTR-HRP cell surface assay (Emax and EC50)
Type: cell-based
Details: for Emax: NCI-H441, NA = Not active
From the text: Example 315: H441 Cell Emax and EC50 Two cell lines were used, the H441 carcinoma line and the CFHBE41o- (41o-) human bronchial epithelial line. Both cell lines expressed human Cystic Fibrosis Transmembrane Conductance Regulator (CFTR) harboring the ΔF508 mutation and with an in-frame fusion in CFTR extracellular loop 4 of Horse Radish Peroxidase (HRP) under control of the CMV promoter. In the presence of the HRP tag, ΔF508-CFTR transported to the cell surface was detectable upon addition of an HRP substrate (Luminata Forte). Both cell types were cultivated at 37° C. with CO2. […] For both cell types, the medium was changed every other day unless the culture was at low % confluence. Cells were used for the assays at 75% confluence. To a polypropylene (PP) 384-well plate, 15 pls DMSO was added to all wells in columns 1-22 and 24 (low Control). 15 μls of 260 μM VX809 (Lumacaftor), Selleckchem […], was added to column 23 wells (high Control). 15 pls of 10 mM test compound or VX809 (control) were added to wells of row A. Serial dilutions of Row A compound were performed 2×15 pls in rows A through 0 (15-point). A PP, 384-well plate containing the appropriate cell culture medium was prepared for each assay plate with 100 pls per well. For the doxycycline-induced 41o-cells, doxycycline for both the assay plate and the medium dilution plate was added at 0.0005 mg/ml to the medium. Both cell lines were plated for the assay at 30 pls per 384-well at 3.4×10 e^5 cells per ml ( 10K cells/well). H441 cells were plated on opaque, white, Corning plate 3704. 41o-cells were plated on collagen-coated opaque, white, Corning plate 356665. For 41o-cells, doxycycline was added to the medium. Using FX (Beckman) protocol, 10 pls diluted compound or medium was added per well to the Assay Plate as: 2 pls DMSO Dilution plate well was diluted in 100 pls of the Medium Dilution Plate well, mixed, and 10 pls was transferred to the Assay Plate. The final assay dilution series was 24.5, 12.3, 6.1, 3.1, 1.5, 0.8, 0.4, 0.2, 0.1, 0.05, 0.02, 0.01, 0.006, 0.003, 0.001 and 0 μM. The 41o-assay plates were incubated at 37° C. w/CO2, the H441 assay plates were incubated at 27° C. w/CO2, each overnight for two nights. After being brought to room temperature, the assay plate liquid was removed. 30 uls of Luminata Forte (Millipore ELLUF0100) was added per well and incubated at room temperature for 10 min. The plates were then read on a Topcount, protocol LumiMatti (CPS, luminescence). The data was analyzed for % of maximum, maximum VX809 signal, and EC50 using Pearl and SPEED tools.

T1 sequence (P13569 with tags, fused parts or gaps DEL508-508): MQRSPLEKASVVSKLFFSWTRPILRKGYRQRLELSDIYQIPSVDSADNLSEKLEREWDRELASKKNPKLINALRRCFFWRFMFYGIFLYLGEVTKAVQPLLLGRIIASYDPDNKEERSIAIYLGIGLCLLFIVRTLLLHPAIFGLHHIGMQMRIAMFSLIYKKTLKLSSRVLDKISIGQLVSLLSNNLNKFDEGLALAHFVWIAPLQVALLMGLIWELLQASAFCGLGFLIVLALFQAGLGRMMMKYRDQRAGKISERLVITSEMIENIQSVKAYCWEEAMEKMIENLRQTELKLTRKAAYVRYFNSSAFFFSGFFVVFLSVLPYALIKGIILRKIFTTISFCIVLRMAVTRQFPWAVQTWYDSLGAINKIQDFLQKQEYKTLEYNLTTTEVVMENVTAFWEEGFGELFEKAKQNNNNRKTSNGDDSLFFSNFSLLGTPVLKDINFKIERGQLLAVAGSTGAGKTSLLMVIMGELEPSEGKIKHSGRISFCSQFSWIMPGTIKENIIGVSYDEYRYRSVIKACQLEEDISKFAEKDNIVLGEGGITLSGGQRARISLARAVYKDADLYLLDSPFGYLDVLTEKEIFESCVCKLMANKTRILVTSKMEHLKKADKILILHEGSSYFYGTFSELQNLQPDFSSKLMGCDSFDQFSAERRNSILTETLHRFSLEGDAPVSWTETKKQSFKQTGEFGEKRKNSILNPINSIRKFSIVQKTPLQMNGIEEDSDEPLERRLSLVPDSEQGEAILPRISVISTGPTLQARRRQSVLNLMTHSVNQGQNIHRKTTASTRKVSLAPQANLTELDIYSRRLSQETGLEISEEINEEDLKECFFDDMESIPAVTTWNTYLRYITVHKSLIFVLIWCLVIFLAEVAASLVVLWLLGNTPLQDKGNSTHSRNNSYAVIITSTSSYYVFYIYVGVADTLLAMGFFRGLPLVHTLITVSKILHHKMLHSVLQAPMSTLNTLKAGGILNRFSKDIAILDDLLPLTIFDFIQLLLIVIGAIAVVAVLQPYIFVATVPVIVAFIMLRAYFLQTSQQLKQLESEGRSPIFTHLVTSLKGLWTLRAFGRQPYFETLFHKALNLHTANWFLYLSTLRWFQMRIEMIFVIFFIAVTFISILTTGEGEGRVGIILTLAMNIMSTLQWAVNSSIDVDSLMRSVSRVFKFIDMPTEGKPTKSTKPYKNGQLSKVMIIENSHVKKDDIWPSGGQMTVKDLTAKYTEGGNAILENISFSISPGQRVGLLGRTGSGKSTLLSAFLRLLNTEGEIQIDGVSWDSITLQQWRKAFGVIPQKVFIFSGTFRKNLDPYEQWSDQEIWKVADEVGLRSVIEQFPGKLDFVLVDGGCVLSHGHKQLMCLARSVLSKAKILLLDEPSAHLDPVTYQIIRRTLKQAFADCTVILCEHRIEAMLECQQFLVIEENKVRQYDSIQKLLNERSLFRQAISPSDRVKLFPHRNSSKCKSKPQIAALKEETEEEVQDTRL

| SMILES | EC50 [µM] | Emax [%] |
| --- | --- | --- |
| CC1([C@H](NC(=O)c2ccc3ccc(C(F)(F)F)cc3c2OCc2ccc(C(F)(F)F)cc2)C(=O)O)CC1 [compound 298, (S)-2-(1-methylcyclopropyl)-2-(7-(trifluoromethyl)-1-((4-(trifluoromethyl)benzyl)oxy)-2-naphthamido)acetic Acid] | 0.7 | 153 |
| CC(C)(C)[C@H](NC(=O)c1ccc2ccc(C(F)(F)F)cc2c1OCc1ccc(OC(F)(F)F)cc1)C(=O)O [compound 292, (S)-3,3-dimethyl-2-(1-((4-(trifluoromethoxy)benzyl)oxy)-7-(trifluoromethyl)-2-naphthamido)butanoic Acid] | 0.2 | 219 |
| C=CCOc1ccc(C[C@H](NC(=O)c2ccc3ccccc3c2OCc2ccc(C(F)(F)F)cc2)C(=O)O)cc1 [Example 92, (S)-3-(4-(allyloxy)phenyl)-2-(1-((4-(trifluoromethyl)benzyl)oxy)-2-naphthamido)propanoic Acid] | 14 | 52.6 |
| COc1ccc2c(OCc3ccc(C(F)(F)F)cc3)c(C(=O)N[C@H](C(=O)O)C3CCCC3)ccc2c1 [Example 160, (S)-2-cyclopentyl-2-(6-methoxy-1-((4-(trifluoromethyl)benzyl)oxy)-2-naphthamido)acetic Acid] | 3.3 | 47.2 |
| CC1(C(NC(=O)c2ccc3cc(F)ccc3c2OCc2ccc(C(F)(F)F)cc2)C(=O)O)CC1 (centres unmarked) [Example 60, 2-(6-fluoro-1-((4-(trifluoromethyl)benzyl)oxy)-2-naphthamido)-2-(1-methylcyclopropyl)acetic Acid] | 1.6 | 90.3 |
| COC(C)(C)[C@H](NC(=O)c1ccc2cc(F)ccc2c1OCc1ccc(SC(F)(F)F)cc1)C(=O)O [Example 118, (S)-2-(6-fluoro-1-((4-((trifluoromethyl)thio)benzyl)oxy)-2-naphthamido)-3-methoxy-3-methylbutanoic Acid] | 2.8 | 71 |
| O=C(N[C@H](Cc1ccccc1)C(=O)O)c1ccc2ccccc2c1OCc1ccc(C(F)(F)F)cc1 [Example 89, (1-((4-(trifluoromethyl)benzyl)oxy)-2-naphthoyl)-D-phenylalanine] | 1.4 | 47.6 |
| CC1(C(NC(=O)c2ccc3ccccc3c2OC[C@H]2CC[C@@H](C(F)(F)F)CC2)C(=O)O)CCCCC1 (some centres unmarked) [Example 39, 2-(1-methylcyclohexyl)-2-(1-(((1s,4s)-4-(trifluoromethyl)cyclohexyl)methoxy)-2-naphthamido)acetic Acid] | 15.4 | 60.7 |
| CC(C)(c1ccccc1)[C@H](NC(=O)c1ccc2ccccc2c1OCc1ccc(S(C)(=O)=O)cc1)C(=O)O [Example 23, (S)-3-methyl-2-(1-((4-(methylsulfonyl)benzyl)oxy)-2-naphthamido)-3-phenylbutanoic Acid] | 9.8 | 29.2 |
| O=C(N[C@@H](Cc1ccc(C(F)(F)F)cc1)C(=O)O)c1ccc2ccccc2c1OCc1ccc(OC(F)(F)F)cc1 [Example 190, (S)-2-(1-((4-(trifluoromethoxy)benzyl)oxy)-2-naphthamido)-3-(4-(trifluoromethyl)phenyl)propanoic Acid] | 7 | 17.9 |
| O=C(N[C@@H](Cc1ccccc1)C(=O)O)c1ccc2ccccc2c1OCc1cccc2c1OC(F)(F)O2 [Example 102, (1-((2,2-difluorobenzo[d][1,3]dioxol-4-yl)methoxy)-2-naphthoyl)-L-phenylalanine] | 8 | 33.7 |
| NC12CCC(C(NC(=O)c3ccc4cc(F)ccc4c3OCc3ccc(OC(F)(F)F)cc3)C(=O)O)(CC1)CC2 (centres unmarked) [Example 184, 2-(4-aminobicyclo[2.2.2]octan-1-yl)-2-(6-fluoro-1-((4-(trifluoromethoxy)benzyl)oxy)-2-naphthamido)acetic Acid] | – | 11.7 |
| C=C(C)C1CC=C(COc2c(C(=O)N[C@H](C(=O)O)C(C)(C)C)ccc3ccccc23)CC1 (stereo partly drawn) [Example 49, (2S)-3,3-dimethyl-2-(1-((4-(prop-1-en-2-yl)cyclohex-1-en-1-yl)methoxy)-2-naphthamido)butanoic Acid] | 1.5 | 33.5 |
| CC(C)(C)[C@H](NC(=O)c1ccc2ccccc2c1OCc1ccc(OC(F)(F)F)cc1)C(=O)O [Example 65, (S)-3,3-dimethyl-2-(1-((4-(trifluoromethoxy)benzyl)oxy)-2-naphthamido)butanoic Acid] | 4.4 | 8.7 |
| CC(C)(C)[C@H](NC(=O)c1ccc2ccccc2c1OCc1ccc(Br)cc1)C(=O)O [Example 46, (S)-2-(1-((4-bromobenzyl)oxy)-2-naphthamido)-3,3-dimethylbutanoic Acid] | 3.5 | 26.9 |
| CCC(C)(C)[C@H](NC(=O)c1ccc2c(F)cc(C)cc2c1OCc1ccc(C(F)(F)F)cc1)C(=O)O [Example 272, (2S)-2-[[5-fluoro-7-methyl-1-[[4-(trifluoromethyl)phenyl]methoxy]-naphthalene-2-carbonyl]amino]-3,3-dimethyl-pentanoic Acid] | 0.2 | 392 |
| CC(C)(C)C[C@H](NC(=O)c1ccc2ccccc2c1OCc1ccc(S(C)(=O)=O)cc1)C(=O)O [Example 158, (S)-4,4-dimethyl-2-(1-((4-(methylsulfonyl)benzyl)oxy)-2-naphthamido)pentanoic Acid] | – | 13 |
| CC(OCc1ccccc1)[C@H](NC(=O)c1ccc2cc(F)ccc2c1OCc1nc2ccccc2s1)C(=O)O (stereo in doubt) [Example 215, N-(1-(benzo[d]thiazol-2-ylmethoxy)-6-fluoro-2-naphthoyl)-O-benzyl-L-allothreonine] | 5.7 | 89.9 |
| O=C(N[C@@H](Cc1ccccc1)C(=O)O)c1ccc2ccccc2c1OCc1ccc([N+](=O)[O-])cc1 [Example 91, (1-((4-nitrobenzyl)oxy)-2-naphthoyl)-L-phenylalanine] | 16.4 | 44.3 |
| COc1ccc2c(OCc3ccc(C(F)(F)F)cc3)c(C(=O)N[C@@H](CC(C)(C)C)C(=O)O)ccc2c1 [Example 161, (S)-2-(6-methoxy-1-((4-(trifluoromethyl)benzyl)oxy)-2-naphthamido)-4,4-dimethylpentanoic Acid] | 3.2 | 47.7 |
| CC(C)(C)[C@H](NC(=O)c1ccc2ccccc2c1OCC1CCC(CO)CC1)C(=O)O (stereo partly drawn) [Example 29, (S)-2-(1-((4-(hydroxymethyl)cyclohexyl)methoxy)-2-naphthamido)-3,3-dimethylbutanoic Acid] | – | 27.8 |
| C[C@@H](OCc1ccccc1)C(NC(=O)c1ccc2ccccc2c1OCC1CCC(CO)CC1)C(=O)O (stereo partly drawn) [Example 146, (3R)-3-(benzyloxy)-2-(1-((4-(hydroxymethyl)cyclohexyl)methoxy)-2-naphthamido)butanoic Acid] | 17.4 | 62.2 |
| CC(C)(C)[C@H](NC(=O)c1ccc2ccccc2c1OCc1ccc2c(c1)OCO2)C(=O)O [Example 79, (S)-2-(1-(benzo[d][1,3]dioxol-5-ylmethoxy)-2-naphthamido)-3,3-dimethylbutanoic Acid] | 2.5 | 9.1 |
| Cc1ccc2ccc(C(=O)N[C@@H](C(=O)O)C(C)(C)C)c(OCc3ccc(OC(F)(F)F)cc3)c2c1 [Example 289, (R)-3,3-dimethyl-2-(7-methyl-1-((4-(trifluoromethoxy)benzyl)oxy)-2-naphthamido)butanoic Acid] | 1.5 | 109 |
| O=C(N[C@H](C(=O)O)C(c1ccccc1)c1ccccc1)c1ccc2ccccc2c1OCc1ccc(Cl)c(Cl)c1 [Example 207, (S)-2-(1-((3,4-dichlorobenzyl)oxy)-2-naphthamido)-3,3-diphenylpropanoic Acid] | 20.4 | 40.4 |
| CC(Oc1c(C(=O)N[C@@H](Cc2ccccc2)C(=O)O)ccc2ccccc12)c1ccc(C(F)(F)F)cc1 (stereo partly drawn) [Example 124, (1-(1-(4-(trifluoromethyl)phenyl)ethoxy)-2-naphthoyl)-L-phenylalanine] | 1.3 | 10.5 |
| O=C(N[C@@H](Cc1ccc(C(F)(F)F)cc1)C(=O)O)c1ccc2cc(F)ccc2c1OCC1CCCCC1 [Example 204, (S)-2-(1-(cyclohexylmethoxy)-6-fluoro-2-naphthamido)-3-(4-(trifluoromethyl)phenyl)propanoic Acid] | – | 6.8 |
